Data on 3 compounds can be found in article PMC7472354, “Enhanced Antimicrobial Activity of N-Terminal Derivatives of a Novel Brevinin-1 Peptide from The Skin Secretion of Odorrana schmackeri” (Toxins, 2020).

In data set [1] the test system is MRSA (ATCC 12493) biofilm. It counts as cell-based, Staphylococcus aureus. To be noted: for MBIC50 / MBIC90: ATCC 12493, 24 h. As for the experimental part: (§1) The anti-biofilm effects of all synthetic peptides were evaluated, which was described in our previous study. The organisms, including S. aureus (NCTC 10788), E. coli (NCTC 10418), MRSA (ATCC 12493), E. faecalis (NCTC 12697) and P. aeruginosa (ATCC 27853), were investigated in this study. Gram-positive bacteria were cultured in the TSB broth and Gram-negative bacteria were cultured in the LB broth. The anti-biofilm effects were determined based on the MBIC and MBEC of all the peptides. For the determination of MBIC, 5 × 10^5 CFU/mL bacterial cultures were incubated with the peptides concentrations (ranging from 1 µM to 512 µM) for 24 h. The sterilised medium and bacterial suspension without any treatment were used as the negative controls and positive controls, respectively. After incubation, wells were rinsed, fixed, stained, washed and dissolved with phosphate buffer saline (PBS), methanol (90%, v/v), crystal violet (0.1%, w/v), sterile deionised water and acetic acid (30%, v/v), respectively. The absorbance of dissolved stain was measured at a 595 nm using a Synergy HT plate reader (Biotech, Minneapolis, MN, USA).
(§2) For the MBEC assay, the peptide concentrations were prepared as above. The bacteria were cultured in the 96 well plate for 24–48 h, which allowed the formation of mature biofilm in the plate. Then, the bacterial culture was removed from the plate. The biofilm was further washed to remove the planktonic bacteria using PBS. Then, the fresh broth that contained different peptide concentrations was added in the plate for incubation of 24 h at 37 °C. After incubation, the plate was stained by crystal violet as mentioned above. The definition of MBIC can be given when compared to the negative control group (≥90%, MBIC90; ≥50%, MBIC50). The definition of the MBEC can be given when compared to the negative control group (≥90%, MBEC90; ≥50%, MBEC50).

Data set [2] deals with S. aureus (NCTC 10788) biofilm. Type of data set: cell-based, Staphylococcus aureus. To be noted: for MBIC50 / MBIC90: NCTC 10788, 24 h. As for the experimental part:
as §1, §2

In data set [3] the test system is horse red blood cells. The following applies: 2 h.
Description: (§3) The haemolytic activity of synthetic peptides was determined using the horse red blood cells that were extracted from the de-fibroblast whole horse blood (TCS Biosciences Ltd. Buckingham, UK). […] Briefly, the red blood cells were harvested and washed using PBS until all broken red blood cells were removed. Then, a 2% cell suspension was prepared using PBS. The peptide concentrations were set as antimicrobial activity assay and mixed with the red blood cells in the microcentrifuge tubes. After a 2 h-incubation at 37 °C, the tubes were centrifuged and the suspension was transferred into a clear 96 well plate. The absorbance of released haemoglobin in the suspension was detected at 570 nm by a plate reader. Besides, the red blood cells treated with PBS and 1% Triton X-100 were used as the negative and positive controls, respectively. […] The therapeutic index (TI) was further determined as below:(1) TI=HC50/product of n MICsn,
In data set [4] the test system is horse red blood cells. Put plainly: Haemolysis assay and therapeutic index. The following applies: 2% horse red blood cells in PBS, 2 h, 37 °C, absorbance 570 nm; best-fitted curve.
Description: as §3
Data set [5] relates to MRSA. Put plainly: Time-killing assay. It counts as cell-based, Staphylococcus aureus. To be noted: peptide at 4 × MIC; colony counts on MHA; three independent experiments. As for the experimental part:
The time-killing assays were employed to determine the killing kinetics of the peptides on the selected bacteria strains. The experiment was performed as described previously. In brief, the bacteria culture was prepared the same way as the antimicrobial activity assay. A bacteria suspension (OD600 = 0.1) was mixed with the peptides at the concentration of their corresponding MICs and 4 × MICs. At different time intervals, 10 µL of aliquots of each sample was transferred into a clean tube and a series of 10-fold dilution was prepared in PBS. A volume of 100 µL of diluted bacteria suspension was spread on an MHA plate, and the number of the bacterial colonies that were formed after an overnight-incubation at 37 °C. The bacteria cultured without any treatment was employed as the negative (growth) control. Three experiments were run in triplicate.

The test system of data set [6] is MRSA. In words: Treatment of MRSA-infected Galleria mellonella larvae. To be noted: 10 µL of 10^8 CFU/mL MRSA injected; peptide 25 or 50 mg/kg injected after 2 h; 30 larvae per group. Type of data set: in vivo. As for the experimental part: The in vivo study of antimicrobial activity of the peptides was evaluated using the larvae of Galleria mellonella, which was described in the previous study with minor modifications. The larvae of Galleria mellonella (250 ± 25 mg; Livefood UK Ltd., Rooks Bridge, UK) were selected. The MRSA culture was prepared the same way as the antimicrobial activity assay. Then, MRSA cells were collected and washed, and further diluted to 10^8 CFU/mL in the saline. Ten µL of MRSA suspension was injected to the larvae and placed in a petri dish. After 2 h, the MRSA infected larvae were administrated with 10 µL of peptides (25 mg/kg, 50 mg/kg) by injection. Saline and vancomycin (20 mg/kg) (Sigma-Aldrich, UK) were used as the negative control and positive control, respectively. Each sample group contained 10 larvae, and the experiment was repeated three times (30 larvae for each group in total). The survival curves were achieved using Prism (Version 6.0; GraphPad Software Inc., San Diego, CA, USA) and the log-rank test was employed to analyze the significance between the different treatments and the controls. * (p < 0.05), ** (p < 0.01) and *** (p < 0.001) represent statistical significance.

Data set [7] can be described thus: Circular dichroism, alpha-helical content (K2D3). Type of data set: physicochemical. To be noted: CD, 50 µM peptide in 50% TFE in 10 mM NH4AC; helical content calculated with K2D3. As for the experimental part: To further identify the secondary structure of purified peptides, they were dissolved in 10 mM ammonium acetate (NH4AC) and 50% trifluoroethanol (TFE) in 10 mM NH4AC, respectively, to achieve the concentration of 50 µM. […] The circular dichroism (CD) data of the peptides in TFE solution was submitted to the K2D3 webserver to analyse the α-helical content. Moreover, helical wheel projections of brevinin-1OS and its analogues were conducted (Figure A7) and the physicochemical properties of all peptides are summarized in Table 1.
Circular dichroism (CD) was employed to determine the secondary structure of the synthetic peptides in the different environment. The peptides were prepared in the aqueous solution, 10 mM NH4AC solution (pH 7.4), or the membrane mimicking solution, 50% TFE in 10 mM NH4AC, at a concentration of 50 µM. The proportion of helical content of each peptide in the 50% TFE in 10 mM NH4AC was calculated using the online server, K2D3 (http://cbdm-01.zdv.uni-mainz.de/~andrade/k2d3/). Physiochemical properties of the helical forming peptides were calculated online by Heliquest (http://heliquest.ipmc.cnrs.fr). Additionally, the secondary structures of peptides were predicted online by I-TASSER Predictions (https://zhanglab.ccmb.med.umich.edu/I-TASSER/).

In data set [8] the test system is MRSA. In words: Skin disinfection test, pig skin model. Further details: species or system Staphylococcus aureus. To be noted: 10 µL peptide at 1 × MIC on MRSA-inoculated pig skin wound, 37 °C, 4 days; SEM. As for the experimental part:
Specifically, pig skin was sterilized before using. The pig skins were cut into small pieces, and then, a rectangular groove was cut using a skin graft. 100 µL of logarithmic MRSA solution was inoculated on the wound, followed by incubating at 37 °C for 30 min. […] The pictures of wounds were captured by the digital camera after washing thrice with PBS, fixed with 2.5% (w/v) glutaraldehyde and dehydrated with a graded ethanol series. Finally, the MRSA cells which had attached to the wounded pig skin were visualized by SEM (Hitachi S-4800, Tokyo, Japan).

“Also recorded” adds a separate entry of the source. Like-named read-outs stand apart in the source and are kept apart here. Where a SMILES comes first, the peptide text is derived from it. Where only a bound is given, the exact number is not on record here.

As for `CC(C)C[C@H](NC(=O)[C@H](C)NC(=O)[C@H](Cc1c[nH]c2ccccc12)NC(=O)[C@H](CCCCN)NC(=O)[C@H](CC(C)C)NC(=O)[C@@H](N)Cc1ccccc1)C(=O)N[C@@H](CCCCN)C(=O)N[C@H](C(=O)N[C@@H](C)C(=O)N[C@@H](C)C(=O)N[C@@H](CCCCN)C(N)=O)C(C)C` [OSd] (H-FLKWALKVAAK-NH2), in data set [1], the MBEC50 is 32/32 µM, the MBEC90 is 256 µM, the MBIC50 is 32/32 µM and the MBIC90 stood at 64 µM. In addition, in data set [2], the MBEC50 turned out to be 32 µM, the MBEC90 is 128 µM, the MBIC50 was 8 µM and the MBIC90 is 32 µM. Also, in the data set on horse red blood cells [3], the “HC50 (concentration causing 50% haemolysis of the red blood cells)” value is listed as above 512 µM.
Take `CC(C)C[C@H](NC(=O)[C@H](C)NC(=O)[C@H](Cc1c[nH]c2ccccc12)NC(=O)[C@H](CCCCN)NC(=O)[C@H](CC(C)C)NC(=O)[C@@H](N)Cc1ccccc1)C(=O)N[C@@H](CCCCN)C(=O)N[C@@H](Cc1c[nH]c2ccccc12)C(=O)N[C@@H](C)C(=O)N[C@@H](C)C(=O)N[C@@H](CCCCN)C(N)=O` [OSe] (H-FLKWALKWAAK-NH2): in data set [1], the MBEC50 was 32 µM, the MBEC90 is on record as 32 µM, the MBIC50 is recorded as 8 µM and the MBIC90 came out at 16 µM. Moreover, in data set [2], the MBEC50 was found to be 32 µM, the MBEC90 was determined as 32 µM, the MBIC50 is given as 4 µM and the MBIC90 was 8 µM. For the same compound, in the data set on horse red blood cells [4], the “HC50 (concentration causing 50% haemolysis of the red blood cells)” value was determined as 64.03 µM.
For the compound `CC(C)C[C@H](NC(=O)[C@H](C)NC(=O)[C@H](Cc1c[nH]c2ccccc12)NC(=O)[C@H](CCCCN)NC(=O)[C@@H]1CCCN1C(=O)[C@H](CC(C)C)NC(=O)[C@@H](N)Cc1ccccc1)C(=O)N[C@@H](CCCCN)C(=O)N[C@@H](Cc1c[nH]c2ccccc12)C(=O)N[C@@H](C)C(=O)N[C@@H](C)C(=O)N[C@@H](CCCCN)C(N)=O` [OSf] (H-FLPKWALKWAAK-NH2; N-terminus assumed), in data set [1], the MBEC50 was 32 µM, the MBEC90 is 128 µM, the MBIC50 is given as 16 µM and the MBIC90 was 64 µM. For the same compound, in data set [2], the MBEC50 is 32 µM, the MBEC90 was 128 µM, the MBIC50 is listed as 8 µM and the MBIC90 is 32 µM. Further, the “time to complete killing of MRSA” value in the data set with MRSA [5] is recorded as at most 45 min. In the data set on MRSA [6], the “mortality of MRSA-infected larvae” value is given as “dramatically decreased the mortality; also recorded: reduced the mortality”. Besides, the α-Helicity in data set [7] is 34.8%. Moreover, the “MRSA on infected pig skin wound after treatment” value with MRSA [8] is “almost eradicated”. The “HC50 (concentration causing 50% haemolysis of the red blood cells)” value with horse red blood cells [4] is recorded as 328.3 µM.
